In patent US20080227655A1, “Assessment of effect of an agent on a human biological condition using rodent gene expression panels” (priority 2006, published 2008):
Values joined by “and” are separate entries in the source; they are usually repeats but may differ in a detail not shown here. Identical values can stand only once.

Tested on: custom murine 40-gene Precision Profile for Rheumatoid Arthritis, whole blood
Assay: KRN (K/BxN) serum transfer induced arthritis model, whole blood gene expression by QPCR, vehicle or dexamethasone treatment
Type: in vivo, female BALB/c mice
Experimental: Whole blood gene expression changes were evaluated in vehicle control and drug-treated murine subjects across two murine models of arthritis according to the following arthritis models:
KRN Transgenic Mouse (K/B×N): K/B×N serum from transgenic mouse used to induce arthritis in female BALB/c mice (n=54). Collagen Induced Arthritis (CIA): Bovine type II collagen used to induce arthritis in male DBA/1 mice (n=54).
In addition, naïve, untreated animal groups at baseline and terminal day were included to control for potential age-related changes in gene expression over the extended study periods. Animal groups, time-points, and treatment schedules are summarized in Tables 20A and 20B, respectively.
Whole blood samples from animals were collected by retro-orbital bleed at selected time-points in accordance with the arthritis study schemas described in […], and transferred into sample collection tubes containing a 1.5× lysis solution and RPMI. Samples were processed into total RNA and cDNA. […] It was anticipated from these murine models would provide a better understanding of the relevant molecular response of arthritis induction and their potential correlation to the human disease condition.
Normal murine subject reference values (represented as normalized Ct or ΔCt values) were established for male DBA/1 mice (n=6 for the CIA study arm) and female BALB/c mice (n=6 for the KRN study arm). In both arms of the study, gene expression response of normal (naïve, non-immunized and untreated) murine subjects were evaluated in groups of 6 each at day 0 and day 60 for the CIA study arm, and at day 0 and day 21 for the KRN study arm (see Tables 20A and 20B).
Gene expression responses for the arthritis-induced murine model were evaluated for untreated mice at day 3 and vehicle-treated mice at days 7, 14 and 21 to characterize disease progression.

[1] = KRN Day 7, Dex-treated, group Average
[2] = KRN Day 7, Dex-treated, individual murine subject, listed as Dex
[3] = KRN Day 7 Dex, group Average, whole blood
[4] = KRN Day 7 Dex, individual mouse, whole blood, listed as Dex
[5] = KRN Day 14, Dex-treated, group Average
[6] = KRN Day 14, Dex-treated, individual murine subject

C[C@@H]1C[C@H]2[C@@H]3CCC4=CC(=O)C=C[C@]4(C)[C@@]3(F)[C@@H](O)C[C@]2(C)[C@@]1(O)C(=O)CO [Dexamethasone]
Normalized CT Value (Delta CT) IL1RAP_M [1]: 18.33 | Normalized CT Value (Delta CT) IL1RN—M [1]: 17.22 | Normalized CT Value (Delta CT) IL6_M [1]: 25.38 | Normalized CT Value (Delta CT) JUN_M [1]: 18.89 | Normalized CT Value (Delta CT) MEF2C—M [1]: 18.74 | Normalized CT Value (Delta CT) MMP9—M [1]: 13.84 | Normalized CT Value (Delta CT) NFKB1—M [1]: 15.89 | Normalized CT Value (Delta CT) PADI4—M [1]: 18.34 | Normalized CT Value (Delta CT) PLA2G7—M [1]: 14.34 | Normalized CT Value (Delta CT) PTPRC_M [1]: 13.18 | Normalized CT Value (Delta CT) PTX3_M [1]: 25.34 | Normalized CT Value (Delta CT) SERPINE1_M [1]: 19.43 | Normalized CT Value (Delta CT) TGFB1_M [1]: 14.97 | Normalized CT Value (Delta CT) TIMP1_M [1]: 24.84 | Normalized CT Value (Delta CT) TLR2_M [1]: 17.04 | Normalized CT Value (Delta CT) TLR4_M [1]: 17.74 | Normalized CT Value (Delta CT) TNFSF5—M [1]: 19.10 | Normalized CT Value (Delta CT) TNF_M [1]: 19.04 | Normalized CT Value (Delta CT) VEGF_M [1]: 20.01 | Normalized CT Value (Delta CT) IL1RAP_M [2]: 18.35 and 18.23 and 18.52 and 17.82 and 18.87 and 18.20 | Normalized CT Value (Delta CT) IL1RN—M [2]: 17.09 and 17.55 and 17.42 and 16.65 and 17.60 and 17.00 | Normalized CT Value (Delta CT) IL6_M [2]: 25.25 and 25.61 and 25.41 and 25.23 and 25.30 and 25.45 | Normalized CT Value (Delta CT) JUN_M [2]: 18.66 and 18.44 and 19.15 and 18.37 and 19.81 and 18.91 | Normalized CT Value (Delta CT) MEF2C—M [2]: 19.10 and 17.75 and 19.18 and 18.50 and 19.03 and 18.87 | Normalized CT Value (Delta CT) MMP9—M [2]: 13.85 and 13.83 | Normalized CT Value (Delta CT) NFKB1—M [2]: 16.06 and 14.93 and 16.25 and 15.43 and 16.52 and 16.16 | Normalized CT Value (Delta CT) PADI4—M [2]: 18.44 and 18.48 and 18.77 and 17.63 and 18.63 and 18.10 | Normalized CT Value (Delta CT) PLA2G7—M [2]: 14.36 and 13.77 and 14.74 and 13.71 and 14.94 and 14.53 | Normalized CT Value (Delta CT) PTPRC_M [2]: 13.36 and 12.55 and 13.38 and 12.76 and 13.68 and 13.33 | Normalized CT Value (Delta CT) PTX3_M [2]: 25.27 and 25.26 and 25.48 and 25.42 and 25.11 and 25.50 | Normalized CT Value (Delta CT) SERPINE1_M [2]: 19.43 and 18.99 and 19.66 and 19.03 and 19.81 and 19.67 | Normalized CT Value (Delta CT) TGFB1_M [2]: 15.24 and 14.22 and 15.34 and 14.62 and 15.36 and 15.02 | Normalized CT Value (Delta CT) TIMP1_M [2]: 24.76 and 24.74 and 24.73 and 24.34 and 25.09 and 25.40 | Normalized CT Value (Delta CT) TLR2_M [2]: 17.41 and 16.20 and 17.63 and 16.31 and 17.86 and 16.84 | Normalized CT Value (Delta CT) TLR4_M [2]: 17.64 and 17.44 and 18.32 and 16.84 and 18.23 and 17.96 | Normalized CT Value (Delta CT) TNFSF5—M [2]: 19.49 and 18.16 and 19.15 and 18.68 and 19.51 and 19.59 | Normalized CT Value (Delta CT) TNF_M [2]: 19.01 and 18.04 and 19.79 and 18.91 and 19.32 and 19.14 | Normalized CT Value (Delta CT) VEGF_M [2]: 20.04 and 20.59 and 20.09 and 19.19 and 20.31 and 19.85 | ABCA1_M Normalized CT Value (Delta CT) [3]: 17.55 | APAF1_M Normalized CT Value (Delta CT) [3]: 18.58 | CASP1_M Normalized CT Value (Delta CT) [3]: 17.59 | CASP3_M Normalized CT Value (Delta CT) [3]: 17.32 | CCR3_M Normalized CT Value (Delta CT) [3]: 18.72 | CD3Z_M Normalized CT Value (Delta CT) [3]: 16.52 | CD8A_M Normalized CT Value (Delta CT) [3]: 17.53 | CD14_M Normalized CT Value (Delta CT) [3]: 19.08 | CD86_M Normalized CT Value (Delta CT) [3]: 21.94 | CSPG2_M Normalized CT Value (Delta CT) [3]: 18.69 | F3_M Normalized CT Value (Delta CT) [3]: 22.96 | HMOX1_M Normalized CT Value (Delta CT) [3]: 17.15 | HSPA1A—M Normalized CT Value (Delta CT) [3]: 21.13 | ICAM1—M Normalized CT Value (Delta CT) [3]: 18.39 | IFI16—M Normalized CT Value (Delta CT) [3]: 16.29 | IL1B_M Normalized CT Value (Delta CT) [3]: 13.94 | IL10_M Normalized CT Value (Delta CT) [3]: 25.42 | ABCA1_M Normalized CT Value (Delta CT) [4]: 18.22 and 16.54 and 17.90 and 16.93 and 18.24 and 17.49 | APAF1_M Normalized CT Value (Delta CT) [4]: 18.85 and 18.10 and 18.95 and 18.00 and 19.01 and 18.59 | ARG2_M Normalized CT Value (Delta CT) [4]: 17.02 and 17.06 and 17.28 and 16.20 and 17.35 and 16.48 | CASP1_M Normalized CT Value (Delta CT) [4]: 17.64 and 16.61 and 18.07 and 17.26 and 18.15 and 17.79 | CASP3_M Normalized CT Value (Delta CT) [4]: 17.09 (2×) and 17.18 and 17.10 and 17.91 and 17.54 | CCR3_M Normalized CT Value (Delta CT) [4]: 18.09 and 18.62 and 18.24 and 18.86 and 18.96 and 19.54 | CD3Z_M Normalized CT Value (Delta CT) [4]: 16.64 and 15.65 and 16.81 and 16.13 and 16.77 and 17.10 | CD8A_M Normalized CT Value (Delta CT) [4]: 17.59 and 17.17 and 17.84 and 17.11 and 17.75 and 17.73 | CD14_M Normalized CT Value (Delta CT) [4]: 19.53 and 18.14 and 19.42 and 18.23 and 20.06 and 19.13 | CD86_M Normalized CT Value (Delta CT) [4]: 22.58 and 20.83 and 22.75 and 21.71 and 22.21 and 21.57 | CSPG2_M Normalized CT Value (Delta CT) [4]: 19.41 and 17.60 and 19.56 and 17.94 and 19.13 and 18.51 | F3_M Normalized CT Value (Delta CT) [4]: 22.15 and 23.54 and 24.16 and 21.10 and 25.46 and 21.36 | HMOX1_M Normalized CT Value (Delta CT) [4]: 17.27 and 16.34 and 17.85 and 15.97 and 18.08 and 17.40 | HSPA1A—M Normalized CT Value (Delta CT) [4]: 21.03 and 20.92 and 21.32 and 20.88 and 21.99 and 20.62 | ICAM1—M Normalized CT Value (Delta CT) [4]: 18.70 and 17.80 and 18.96 and 18.10 and 18.69 and 18.08 | IFI16—M Normalized CT Value (Delta CT) [4]: 16.35 and 14.96 and 17.17 and 16.15 and 16.73 and 16.40 | IL1B_M Normalized CT Value (Delta CT) [4]: 14.33 and 13.94 and 14.24 and 13.43 and 14.32 | IL10_M Normalized CT Value (Delta CT) [4]: 25.39 and 25.60 and 25.53 and 25.18 and 25.34 and 25.45 | Normalized CT Value (Delta CT) IL1RAP_M [5]: 18.59 | Normalized CT Value (Delta CT) IL1RN—M [5]: 17.70 | Normalized CT Value (Delta CT) IL6_M [5]: 25.48 | Normalized CT Value (Delta CT) JUN_M [5]: 19.67 | Normalized CT Value (Delta CT) MEF2C—M [5]: 20.33 | Normalized CT Value (Delta CT) MMP9—M [5]: 14.45 | Normalized CT Value (Delta CT) NFKB1—M [5]: 17.29 | Normalized CT Value (Delta CT) PADI4—M [5]: 18.79 | Normalized CT Value (Delta CT) PLA2G7—M [5]: 15.21 | Normalized CT Value (Delta CT) PTPRC_M [6]: 14.30 | Normalized CT Value (Delta CT) PTX3_M [6]: 25.29 | Normalized CT Value (Delta CT) SERPINE1_M [6]: 19.63 | Normalized CT Value (Delta CT) TGFB1_M [6]: 16.04 | Normalized CT Value (Delta CT) TIMP1_M [6]: 25.27 | Normalized CT Value (Delta CT) TLR2_M [6]: 18.52
